The subject of the experiment is Plasmodium berghei. The experiment in a line: Luciferase/luciferin-expressing antifolate-resistant parasites were used to infect a culture of HepG2 cells that were pre-incubated with compounds. Infected hepatocytes emit light due to the luciferase reaction. Assay results are presented as the percent inhibition of light emission compared to control. […]. The format is functional. The note with it: sporozoite; for IC90: read-out: LUCIFERASE INFECTION ASSAY - IC90.

[1] abbreviates: read-out: LUCIFERASE INFECTION ASSAY - IC50.

SMILES strings stand for the structures.

By IC50 is commonly meant the concentration needed to halve the response being measured. As usually defined, the IC90 is the point of the concentration-response curve where the effect stands at 90%.

As for `CC(C)N1/C(=C\c2ccccc2O)C(=O)c2ccccc2S1(=O)=O`, the IC90 is above 9.61 µM. For the same molecule, the IC50 (HEPG2TOX_HILL_SLOPE 2.04, HEPG2TOX_R_SQUARED 0.975, PBLUC_HILL_SLOPE 1.99, PBLUC_R_SQUARED 0.616, read-out: LUCIFERASE INFECTION ASSAY - IC50) is 3.26 µM.

Turning to `CCC(C)c1ccc(S(=O)(=O)N2CCN(C(C)C(=O)N3c4ccccc4CC3C)CC2)cc1` (stereo not drawn), the IC90 is above 10 µM. For the same molecule, under setting [1], the concentration for half-maximal inhibition (IC50) is above 10 µM.

As for `NC(=O)c1cc(NC(=O)c2cccs2)ccc1N1CCCCC1`, the IC90 came to 4.83 µM. In addition, the IC50 (HEPG2TOX_HILL_SLOPE 7.03, HEPG2TOX_R_SQUARED 0.757, PBLUC_HILL_SLOPE 7.92, PBLUC_R_SQUARED 0.39, read-out: LUCIFERASE INFECTION ASSAY - IC50) was determined as 3.66 µM.

On to `O=C1CN(C(=O)CNC(c2ccccc2)c2cccs2)c2ccccc2N1` (stereo not drawn), for which the IC90 was above 10 µM. Besides, the half-inhibitory concentration (IC50) under setting [1] is above 10 µM.

On to `FC(F)Oc1ccc(NC(=S)NNC(=S)Nc2ccc(Cl)cc2)cc1`, for which the IC90 came out at 4.51 µM. The IC50 (HEPG2TOX_HILL_SLOPE 2.66, HEPG2TOX_R_SQUARED 0.926, PBLUC_HILL_SLOPE 1.61, PBLUC_R_SQUARED 0.703, read-out: LUCIFERASE INFECTION ASSAY - IC50) was 1.16 µM.

Consider `CC(C)c1ccccc1NC(=O)Nc1nc(C(N)Cc2ccc(C(F)(F)F)cc2)cs1` (stereo not drawn), for which the IC90 was above 7.36 µM. The IC50 (PBLUC_HILL_SLOPE 1.06, PBLUC_R_SQUARED 0.663, read-out: LUCIFERASE INFECTION ASSAY - IC50) turned out to be 1.89 µM.

Turning to `CC(C)c1ccc(C(=O)Nc2ccccn2)cc1`, the IC90 is above 13.7 µM. The IC50 (FFLUC_HILL_SLOPE 1.25, FFLUC_R_SQUARED 0.914, PBLUC_HILL_SLOPE 0.406, PBLUC_R_SQUARED 0.482, read-out: LUCIFERASE INFECTION ASSAY - IC50) was found to be 1.63 µM.

Consider `Cc1cc(-c2nc(=O)c3ccccc3[nH]2)c(C)n1-c1cccc(S(=O)(=O)N2CCOCC2)c1`, for which the IC90 was above 10 µM. The IC50 (PBLUC_HILL_SLOPE 0.619, PBLUC_R_SQUARED 0.0201, read-out: LUCIFERASE INFECTION ASSAY - IC50) was above 10 µM.

For `Cc1nn(-c2ccccc2)c(Oc2ccc(Br)cc2)c1CNC1CCC(O)CC1` (stereo not drawn), the IC90 is above 10 µM. Under setting [1], the IC50 is above 10 µM.

With `O=C(COc1ccc([N+](=O)[O-])c2cccnc12)Nc1ccc(C(F)(F)F)cc1`, the IC90 was above 10 µM. Also, under “FFLUC_HILL_SLOPE 10, FFLUC_R_SQUARED 0.0627, PBLUC_HILL_SLOPE 68.1, PBLUC_R_SQUARED 0.146, read-out: LUCIFERASE INFECTION ASSAY - IC50”, the IC50 was found to be 9.89 µM.

Consider `O=C(Nc1ccccc1Oc1ccccc1Cl)c1cc2ccccc2c(=O)[nH]1`, for which the concentration for an effect of 90% (IC90) worked out at 1.25 µM. In addition, under “HEPG2TOX_HILL_SLOPE 0.764, HEPG2TOX_R_SQUARED 0.704, PBLUC_HILL_SLOPE 15.6, PBLUC_R_SQUARED 0.531, read-out: LUCIFERASE INFECTION ASSAY - IC50”, the IC50 amounted to 1.09 µM.

On to `Cc1[nH]c2c(F)cc(F)cc2c(=O)c1I`, for which the IC90 amounted to 9.47 µM. Also, where the note is “PBLUC_HILL_SLOPE 4.58, PBLUC_R_SQUARED 0.0894, read-out: LUCIFERASE INFECTION ASSAY - IC50”, the IC50 came to 5.86 µM.

Turning to `CN(C)C(=O)CNC(=O)c1ccc(C(F)(F)F)cc1`, the IC90 was above 10 µM. In addition, the IC50 under setting [1] was above 10 µM.

Turning to `CN1/C(=C\C(=O)C[n+]2ccc3ccccc3c2)C(C)(C)c2ccccc21`, the IC90 is 1.83 µM. Moreover, the IC50 under setting [1] is 1.05 µM.

With `Clc1ccc2c(c1)-c1nc(-c3ccncc3)ncc1CS2`, the IC90 turned out to be 5.94 µM. For the same molecule, where the note is “HEPG2TOX_HILL_SLOPE 2.28, HEPG2TOX_R_SQUARED 0.969, PBLUC_HILL_SLOPE 3.97, PBLUC_R_SQUARED 0.207, read-out: LUCIFERASE INFECTION ASSAY - IC50”, the IC50 is 3.41 µM.

On to `N#Cc1ccnc(N2CCN(c3nc(CSc4ccccc4)nc4sc5c(c34)CCC5)CC2)c1`, for which the IC90 is above 10 µM. In addition, the IC50 under setting [1] is above 10 µM.

Take `O=C1N(Cc2ccccn2)C(=O)C2(CCN(C3CCc4ccccc4C3)CC2)N1Cc1ccccc1` (stereo not drawn): the IC90 is above 6.87 µM. The IC50 (PBLUC_HILL_SLOPE 10, PBLUC_R_SQUARED 0.136, read-out: LUCIFERASE INFECTION ASSAY - IC50) amounted to 6.39 µM.

For the molecule `COC(=O)c1c(NC(=O)c2cccnc2)c2cc(NCC3CCCCC3)cnc2n1Cc1ccccc1`, the IC90 was above 6.63 µM. Further, where the note is “HEPG2TOX_HILL_SLOPE 17.8, HEPG2TOX_R_SQUARED 0.594, PBLUC_HILL_SLOPE 8.22, PBLUC_R_SQUARED 0.247, read-out: LUCIFERASE INFECTION ASSAY - IC50”, the IC50 came to 5.43 µM.

On to `OCc1ccccc1-c1cn2c(-c3ccc4ncccc4c3)cnc2cn1`, for which the concentration for an effect of 90% (IC90) was determined as 0.468 µM. Moreover, the IC50 (HEPG2TOX_HILL_SLOPE 0.72, HEPG2TOX_R_SQUARED 0.902, PBLUC_HILL_SLOPE 1.49, PBLUC_R_SQUARED 0.863, read-out: LUCIFERASE INFECTION ASSAY - IC50) turned out to be 0.107 µM.

As for `CNC(=O)c1cccc(-c2ccc3ncc(-c4ccc(NC(C)=O)cc4)n3n2)c1`, the IC90 worked out at 2.63 µM. In addition, for the setting “HEPG2TOX_HILL_SLOPE 1.21, HEPG2TOX_R_SQUARED 0.751, PBLUC_HILL_SLOPE 4.52, PBLUC_R_SQUARED 0.725, read-out: LUCIFERASE INFECTION ASSAY - IC50”, the IC50 was 1.62 µM.

As to `CC1C/C(=C\c2ccco2)c2nc3ccccc3c(C(=O)OCC(=O)N3CC(=O)Nc4ccccc43)c2C1` (stereo not drawn), the IC90 is above 10 µM. Besides, under setting [1], the half-inhibitory concentration (IC50) is above 10 µM.

Consider `CCOC(=O)c1c(NC(=O)COC(=O)c2ccccc2Nc2cccc(C)c2C)sc(C(=O)N(C)C)c1C`, for which the IC90 was above 10 µM. Moreover, the IC50 under setting [1] was above 10 µM.

Turning to `O=C(COc1ccc(Cl)cc1Br)c1ccc[nH]1`, the IC90 was above 10 µM. Further, the IC50 (FFLUC_HILL_SLOPE 12.1, FFLUC_R_SQUARED 0.341, HEPG2TOX_HILL_SLOPE 8.8, HEPG2TOX_R_SQUARED 0.689, read-out: LUCIFERASE INFECTION ASSAY - IC50) was above 10 µM.

`Cc1[nH]c2ccccc2c1CC(=O)N1CCc2c(c(C(=O)NCc3cccnc3)nn2CC(C)C)C1`: the IC90 amounted to 6.57 µM. Besides, the IC50 (PBLUC_HILL_SLOPE 12.1, PBLUC_R_SQUARED 0.505, read-out: LUCIFERASE INFECTION ASSAY - IC50) was 5.48 µM.

`Cn1ccc2cc(-c3cn4c(-c5ccc(C#N)cc5)cnc4cn3)ccc21`: the IC90 was 0.546 µM. Further, the IC50 (HEPG2TOX_HILL_SLOPE 1.34, HEPG2TOX_R_SQUARED 0.963, PBLUC_HILL_SLOPE 3.57, PBLUC_R_SQUARED 0.761, read-out: LUCIFERASE INFECTION ASSAY - IC50) was found to be 0.295 µM.

In the case of `Nc1nc2ccc(C(=O)N3CCN(C/C=C/c4ccccc4)CC3)cc2s1`, the IC90 is above 10 µM. Also, the IC50 (HEPG2TOX_HILL_SLOPE 1.29, HEPG2TOX_R_SQUARED 0.665, PBLUC_HILL_SLOPE 22.8, PBLUC_R_SQUARED 0.0313, read-out: LUCIFERASE INFECTION ASSAY - IC50) was above 10 µM.

As for `O=C(COC(=O)c1ccccc1NCCO)NC1c2ccccc2-c2ccccc21`, the IC90 is 4.07 µM. Besides, the IC50 (FFLUC_HILL_SLOPE 129, FFLUC_R_SQUARED 0.809, HEPG2TOX_HILL_SLOPE 1.96, HEPG2TOX_R_SQUARED 0.833, PBLUC_HILL_SLOPE 15.2, PBLUC_R_SQUARED 0.28, read-out: LUCIFERASE INFECTION ASSAY - IC50) was found to be 3.52 µM.

On to `CN(C)c1cccc(-c2ccc3nnc(-c4ccc5c(c4)OCO5)n3c2)c1`, for which the IC90 worked out at 5.11 µM. Further, the IC50 (HEPG2TOX_HILL_SLOPE 1.77, HEPG2TOX_R_SQUARED 0.976, PBLUC_HILL_SLOPE 2.39, PBLUC_R_SQUARED 0.666, read-out: LUCIFERASE INFECTION ASSAY - IC50) is 2.04 µM.

On to `Clc1ccc(-c2cc(-c3csc(Nc4ccccc4Cl)n3)on2)c(Cl)c1`, for which the IC90 was above 7.81 µM. Moreover, the IC50 (HEPG2TOX_HILL_SLOPE 18.2, HEPG2TOX_R_SQUARED 0.802, PBLUC_HILL_SLOPE 3.06, PBLUC_R_SQUARED 0.131, read-out: LUCIFERASE INFECTION ASSAY - IC50) amounted to 7.18 µM.

On to `O=C1CCCN1c1ccc(S(=O)(=O)Oc2ccc(Cl)cc2)cc1`, for which the IC90 came out at 2.91 µM. Further, the IC50 (HEPG2TOX_HILL_SLOPE 0.952, HEPG2TOX_R_SQUARED 0.945, PBLUC_HILL_SLOPE 2.14, PBLUC_R_SQUARED 0.73, read-out: LUCIFERASE INFECTION ASSAY - IC50) was determined as 1.04 µM.

Take `Cc1cccc(NC(=S)Nc2cn(-c3ccccc3)nc2-c2ccc(Br)cc2)c1C`: the IC90 is above 10 µM. Besides, the IC50 (FFLUC_HILL_SLOPE 12, FFLUC_R_SQUARED 0.538, PBLUC_HILL_SLOPE 15.7, PBLUC_R_SQUARED 0.516, read-out: LUCIFERASE INFECTION ASSAY - IC50) is 9.52 µM.

In the case of `N#Cc1c(SCC(=O)c2ccc(F)c(F)c2)nc2c(c1-c1cccs1)CCCC2`, the IC90 is above 7.74 µM. Under “PBLUC_HILL_SLOPE 15.7, PBLUC_R_SQUARED 0.483, read-out: LUCIFERASE INFECTION ASSAY - IC50”, the IC50 is 7.6 µM.

On to `O=c1c(Cl)c(Cl)cnn1-c1ccc(C(F)(F)F)cc1`, for which the IC90 came out at 5 µM. Moreover, the IC50 (FFLUC_HILL_SLOPE 1.51, FFLUC_R_SQUARED 0.59, HEPG2TOX_HILL_SLOPE 2.35, HEPG2TOX_R_SQUARED 0.929, PBLUC_HILL_SLOPE 2.87, PBLUC_R_SQUARED 0.611, read-out: LUCIFERASE INFECTION ASSAY - IC50) turned out to be 2.33 µM.

As for `C=C(C)C(=O)Nc1ccc([N+](=O)[O-])cc1Cl`, the IC90 is above 13.7 µM. For the same molecule, the IC50 under setting [1] was above 13.7 µM.

(Values after ChEMBL document CHEMBL4483862, “Open-source discovery of chemical leads for next-generation chemoprotective antimalarials” (2018).)
